The record followed here is BindingDB's records for doi:10.1021/acschembio.6b00511 (Novartis Institutes For Biomedical Research, 2016).

One may read the IC50 as the concentration needed to halve the response being measured.

SMILES strings stand for the structures. Several values for one entry are separate records, joined by “and”; a condition that tells them apart may be missing. Equal values may be shown once.

Assay [1] deals with T1, Serine/threonine-protein kinase WNK1 [1-491] (Homo sapiens, UniProt Q9H4A3).
T1 construct: 1-491
As to the kind of experiment: WNK1 Mobility Shift Assay. The settings on record: pH 7.5. Here is the method:
A mixture of fluorescein labeled OSR1 peptide substrate (Toray Research Center, Inc.) and ATP was prepared with final concentrations of 10 and 25 μM, respectively, in 7 μL of reaction buffer [20 mM HEPES Na (pH 7.5), 1 mM MnCl2, 0.01% Tween 20, and 2 mM DTT]. Compounds at final concentrations from 0.003 to 100 μM in 1 μL were added to the peptide/ATP mixture at a final DMSO concentration of 10%. The reaction was initiated by the addition of 2 μL of GST-WNK1 (1−491; Carna Biosciences) that was 86% pure at a final concentration of 25 nM in a 384-well plate. After incubation for 3 h at 25 °C, where 15% conversion of the substrate to the product was observed, 10 μL of a stop buffer containing 0.2% coating-3 reagent with 2 mM EDTA was added. For 800 μM ATP, the WNK1 assay was performed for 50 min at 25 °C, where 15% conversion of the substrate to the product was observed. Aliquots from each well were transferred onto a four-sipper chip on a Labchip3

The target of assay [2] is T1, Serine/threonine-protein kinase WNK1 [1-491]. As to the kind of experiment: WNK In Vitro Radiometric Assays. The settings on record: pH 7.3. As to the method:
(§1) The assay utilized 5 to 10 nM of WNK1−4 protein compared to 25 nM used for mobility shift assay, enabling a more accurate comparison of selectivity among potent inhibitors. Assays measured the incorporation of 33P from [γ-33P]ATP into myelin basic protein (MBP) coated in the wells of 96-well ScintiPlates (PerkinElmer). Each well of the MBP-coated ScintiPlates held 100 μL of a solution containing 20 mM HEPES at pH 7.3, 5 mM MnCl2 (WNK1 and WNK4) or 3 mM MnCl2 (WNK2 and WNK3), 0.01% Tween-20 (WNK1, WNK3, and WNK4) or 0.02% Tween-20 (WNK2), 1 mM TCEP, 2% DMSO, 1 μM ATP (WNK1, WNK3, and WNK4) or 2 μM ATP (WNK2), 1 μCi [γ -33P]ATP (WNK1, WNK2, WNK4) or 0.25 μCi [γ-33P]ATP (WNK3), WNK kinase enzyme (5 nM WNK1, 10 nM WNK2, 5 nM WNK3, or 10 nM WNK4), and the compound at the desired concentration. The plate was sealed and mixed for 20 s at 800 rpm on a benchtop plate shaker. The plate was then placed in a 25 °C shaking incubator at 175 rpm. Reactio

The target in assay [3] is T2, Serine/threonine-protein kinase WNK3 [1-434] (Homo sapiens, UniProt Q9BYP7).
T2 construct: 1-434
As to the kind of experiment: WNK In Vitro Radiometric Assays. As to conditions: pH 7.3. As to the method:
as §1

In assay [4] the target is T3, Serine/threonine-protein kinase WNK4 [1-444] (Homo sapiens, UniProt Q96J92).
T3 construct: 1-444
As to the kind of experiment: WNK In Vitro Radiometric Assays. The settings on record: pH 7.3. As to the method:
as §1

Assay [5] addresses T4, Serine/threonine-protein kinase WNK2 [166-489] (Homo sapiens, UniProt Q9Y3S1).
T4 construct: 166-489
Put plainly: WNK In Vitro Radiometric Assays. As to conditions: pH 7.3. As to the method: as §1

T1 sequence (Q9H4A3 1-491): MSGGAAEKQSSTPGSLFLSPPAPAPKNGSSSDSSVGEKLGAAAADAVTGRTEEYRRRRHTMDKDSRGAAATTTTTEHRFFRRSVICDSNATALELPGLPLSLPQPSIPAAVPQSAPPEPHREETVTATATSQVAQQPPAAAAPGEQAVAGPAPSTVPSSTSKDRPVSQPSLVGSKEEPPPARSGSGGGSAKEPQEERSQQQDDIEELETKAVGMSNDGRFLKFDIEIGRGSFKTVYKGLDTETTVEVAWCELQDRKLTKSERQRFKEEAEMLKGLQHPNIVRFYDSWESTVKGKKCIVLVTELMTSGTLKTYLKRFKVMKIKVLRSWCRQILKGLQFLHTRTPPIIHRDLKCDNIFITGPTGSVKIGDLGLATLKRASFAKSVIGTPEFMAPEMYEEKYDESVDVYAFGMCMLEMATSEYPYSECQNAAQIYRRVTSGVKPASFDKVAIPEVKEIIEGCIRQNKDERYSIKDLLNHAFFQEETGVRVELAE
T2 sequence (Q9BYP7 1-434): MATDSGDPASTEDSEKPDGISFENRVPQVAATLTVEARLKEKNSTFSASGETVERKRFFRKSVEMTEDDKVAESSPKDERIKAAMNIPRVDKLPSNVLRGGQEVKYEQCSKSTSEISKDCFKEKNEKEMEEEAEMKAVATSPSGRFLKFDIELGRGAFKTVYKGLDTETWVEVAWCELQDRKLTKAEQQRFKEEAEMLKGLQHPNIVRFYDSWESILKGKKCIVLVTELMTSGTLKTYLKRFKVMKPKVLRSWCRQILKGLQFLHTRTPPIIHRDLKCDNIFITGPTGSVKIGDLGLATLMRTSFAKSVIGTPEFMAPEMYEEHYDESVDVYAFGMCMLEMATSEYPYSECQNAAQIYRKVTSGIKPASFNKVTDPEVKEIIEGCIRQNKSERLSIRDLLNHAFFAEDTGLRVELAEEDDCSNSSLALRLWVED
T4 sequence (Q9Y3S1 166-489): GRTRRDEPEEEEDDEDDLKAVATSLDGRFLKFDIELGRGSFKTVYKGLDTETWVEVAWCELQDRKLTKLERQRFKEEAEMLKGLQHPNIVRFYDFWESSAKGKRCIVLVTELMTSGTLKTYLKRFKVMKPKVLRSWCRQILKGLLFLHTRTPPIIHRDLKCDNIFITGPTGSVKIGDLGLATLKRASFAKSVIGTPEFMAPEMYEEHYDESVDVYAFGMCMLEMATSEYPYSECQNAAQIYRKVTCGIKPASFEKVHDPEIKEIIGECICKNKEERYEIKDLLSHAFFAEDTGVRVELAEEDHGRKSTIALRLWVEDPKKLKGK
T3 sequence (Q96J92 1-444): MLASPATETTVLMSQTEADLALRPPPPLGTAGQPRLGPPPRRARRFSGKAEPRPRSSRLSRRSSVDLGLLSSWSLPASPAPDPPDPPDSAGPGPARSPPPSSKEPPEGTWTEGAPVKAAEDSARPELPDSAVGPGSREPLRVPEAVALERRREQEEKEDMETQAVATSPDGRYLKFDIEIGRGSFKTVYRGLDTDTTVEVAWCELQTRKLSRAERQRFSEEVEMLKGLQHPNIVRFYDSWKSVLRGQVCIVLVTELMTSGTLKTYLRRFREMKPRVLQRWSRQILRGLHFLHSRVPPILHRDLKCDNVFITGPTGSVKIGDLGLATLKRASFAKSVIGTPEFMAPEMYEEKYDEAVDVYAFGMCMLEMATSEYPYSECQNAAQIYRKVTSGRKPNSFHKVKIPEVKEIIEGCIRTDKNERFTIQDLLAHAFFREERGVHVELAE

Regarding `CNc1nc(-c2ccc3c(c2)CCN3C(=O)c2ccccc2OCc2ccc(Cl)cc2)cs1` [(2-((4-Chlorobenzyl)oxy)phenyl)(5-(2-(methylamino)thiazol-4-yl)indolin-1-yl)methanone (Compound 2)], the IC50 in assay [1] was 180 nM and 150 nM; in assay [2], 64 nM; in assay [3] it was 377 nM; in assay [4] it was 187 nM; in assay [5] it was 50 nM.
